{"source": "patent US11879021B2", "about": "“Cyclic peptides and uses thereof” (UNIVERSITÉ DE MONTRÉAL, priority 2016, dated 2024)", "key": {"[1]": {"tested_on": "R-FSL-1 (TLR2 agonist)-induced NO production in RAW macrophage cell line", "experiment": "Nitric oxide (NO) production induced by TLR2 agonist R-FSL-1 in RAW macrophage cell line", "format": "cell-based, murine", "details": "RAW macrophages", "method": "The murine RAW1 macrophage cell line was obtained from American Type Cell Collection (ATCC #TIB-71), seeded at 1.5×10^5 cells/well in Dulbecco's Modified Eagle's medium (DMEM) containing 100 U/mL of penicillin (Pen) and 100 μg/mL of streptomycin (Strep) on a 48-well plate (Costar® #3548), and incubated at 37° C. with 5% CO2. After 2 h, the cell culture medium of adhered cells was removed and replaced by DMEM-Pen/Strep medium containing 0.2% of bovine serum albumin (BSA), and supplemented with the cyclic peptides at a concentration of 10^−6 or 10^−7 M. MPE-001 (DBG178, His-D-Trp-Ala-AzaTyr-D-Phe-Lys-NH2) and [azaLys^6]-GHRP-6 (His-D-Trp-Ala-Trp-D-Phe-azaLys-NH2, negative control) at 10^−6 M were used as positive and negative controls, respectively. After 1 h pre-incubation, the cells were stimulated overnight using the TLR2 ligand fibroblast-stimulating lipopeptide (R-FSL-1) (Invivogen® #L7022) at a concentration of 300 ng/mL. Supernatants were then collected for nitrite production analysis by fluorescence using 2,3-diaminonaphthalene (DAN). Briefly, 25 μL of sample was incubated with 0.5 μg of DAN in a 100 μL final volume of phosphate buffer (50 mM, pH 7.5) at room temperature in the dark. After 15 min, the reaction was stopped with 20 μL of NaOH (2.8N) and the plate was read using a fluorescence plate reader (TECAN® Safire, λexc 365 nm and λem 430 nm)."}, "CD36": {"target": "T1, CD36 (Rattus norvegicus, UniProt Q07969)", "T1 construct": "from tissue; host or cells: Heart (cardiac membranes) of Sprague Dawley rats from Charles River", "T1 sequence (Q07969 whole entry)": "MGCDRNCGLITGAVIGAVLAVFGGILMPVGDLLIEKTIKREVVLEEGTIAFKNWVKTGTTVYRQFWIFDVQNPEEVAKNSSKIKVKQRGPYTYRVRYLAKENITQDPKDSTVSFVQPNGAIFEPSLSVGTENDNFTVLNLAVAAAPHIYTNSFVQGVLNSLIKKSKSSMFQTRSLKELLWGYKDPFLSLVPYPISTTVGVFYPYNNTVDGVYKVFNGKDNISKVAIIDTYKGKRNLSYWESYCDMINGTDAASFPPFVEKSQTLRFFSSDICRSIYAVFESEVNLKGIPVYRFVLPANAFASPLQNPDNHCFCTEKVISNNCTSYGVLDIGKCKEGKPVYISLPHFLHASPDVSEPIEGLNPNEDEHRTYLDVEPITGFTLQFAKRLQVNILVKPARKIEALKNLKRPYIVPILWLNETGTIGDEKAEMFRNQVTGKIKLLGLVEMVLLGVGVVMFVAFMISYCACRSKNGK", "experiment": "Competition binding of photoactivatable [125I]-Tyr-Bpa-Ala-Hexarelin to CD36 in rat cardiac membranes", "details": "competition with [125I]-Tyr-Bpa-Ala-Hexarelin, rat heart membranes; read-out: IC50 (μM), binding affinity for CD36", "method": "Hearts from Sprague Dawley rats (300-325 g) from Charles River were cut into small pieces and homogenized with a Polytron® at low speed, 3×15 sec in buffer A (10 mM NaHCO3, 5 mM NaN3, 10 μM Pefabloc®, 0.1 μM Aprotinin, 1 μM Pepstatin A, 1 μM Leupeptin, pH 7.0) at a concentration of […] of tissue. The homogenate was first centrifuged at 8,700×g for 20 min in a Sorvall® centrifuge and the supernatant was collected on ice. The pellet was resuspended and re-homogenized with a Glass-Teflon® Potter by 5 strokes. This homogenate was recentrifuged at 8,700×g for 10 min and the resulting supernatant was combined with the first collected supernatant. The combined supernatant was centrifuged at 35,000×g for 20 min. The pellet fraction obtained was resuspended in Buffer B (20 mM Tris-maleate, 0.6M KCl, pH 6.8) in a volume corresponding to 20 mL/g of fresh tissue using a glass homogenizer with a Teflon pestle. The resulting suspension was centrifuged again at 35,000×g for 60 min. and the pellet fraction obtained was resuspended in Buffer C (10 mM Tris/HCl buffer pH 7.4) and thoroughly homogenized in a glass with a Teflon® pestle (20 ml/g of fresh tissue). This suspension was submitted to another centrifugation at 35,000×g for 60 min. The collected pellet was resuspended in 50 mM Tris/HCl buffer pH 7.4) containing 2 mM EGTA in a final volume corresponding to 1-2 mL/g of fresh tissue. The membrane preparation obtained was frozen at −80° C. Protein concentration was determined using the bicinchoninic acid (BCA) method, employing BSA as standard.\nThe reaction was started by adding 3 nmol of H2O2 for 5 min at room temperature. This step was repeated twice with a period of 5 min of incubation for each addition. The reaction was stopped by diluting the mixture with 1 mL of 0.1% TFA. The radioiodinated peptide was purified by HPLC on a reverse-phase Vydac® C18 column with a 60-min linear gradient from 20% to 50% of acetonitrile in 0.1% TFA. The eluted radiolabelled tracer was collected, aliquoted (50×10^6 cpm/fraction) and stored at −80° C.\nBinding studies with MPE-298 were done with increasing concentrations from 0.01 to 5 μM of competition ligands. Nonspecific binding was defined as binding not displaced by 50 μM corresponding peptide. All peptide containing solutions were diluted in Buffer B. Buffer A and B were degassed under vacuum, and used in capped tubes in order to minimize lipid peroxidation. Before the incubation period, all tubes were put under a low flow of nitrogen. All material was kept on ice and the binding assay was performed in darkness. After an incubation period of 60 min at 22° C. (vortexing every 15 min), membranes were submitted to irradiation with UV lamps (365 nm) for 15 min at 4° C. After centrifugation at 12,000×g for 15 minutes, the pellets were resuspended in 40 μl of sample buffer (62 mM Tris-HCl, pH 6.8, 2% SDS, 10% glycerol, 15% 2-mercaptoethanol, and 0.05% bromophenol blue), and boiled for 5 min prior to being subjected to electrophoresis. Proteins (50 μg/40 μl) were separated on a 7.5% SDS-PAGE Bio-Rad® Mini-Protean electrophoresis system (150 V for 1 h). The gels resulting from SDS/PAGE were fixed, colored in Coomassie Brilliant Blue R-250, dried, exposed to a storage phosphor intensifying screen (Amersham Biosciences), and analysed using a Typhoon® PhosphorImager (GE Healthcare Life Sciences®). […] The curves were analysed by using software package (Graphpad® prism version 7.0)."}}}
{"compound": "C=CCN1CC#CCN(NC(=O)[C@H](C)N)C(=O)N[C@H](Cc2c[nH]c3ccccc23)C(=O)N[C@@H](C)C(=O)N[C@@H](Cc2c[nH]c3ccccc23)C(=O)N[C@H](Cc2ccccc2)C(=O)N[C@H](C(N)=O)CCCC1", "note": "[MPE-298]", "values": [{"measurement": "suppression of NO production compared with positive control MPE-001 at the same concentration", "setting": "[1]; 10^−7 M, FIG. 4F", "value": "more important"}, {"measurement": "suppression of R-FSL-1-mediated NO production at 10^−7 M", "setting": "[1]; 10^−7 M, further analyses, FIG. 4F", "value": "significant suppression"}, {"measurement": "suppression of R-FSL-1-mediated NO production", "setting": "[1]; at the concentration tested (10^−6 or 10^−7 M), FIGS. 4A to 4F", "value": "significant suppression"}, {"measurement": "IC50", "setting": "CD36", "value": 0.07, "unit": "µM"}]}
